Experiments:
Format in all cases: in vivo
[1] = tested on: Surinam grass (Brachiaria decumbens); test: Test B postemergence; settings: 13 to 15 days
Outline: (§1)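 Post-treatment, species sat 13–15 days under greenhouse conditions before visual scoring against controls, 0 (no effect) through 100 (complete control). Application preemergence to sown seeds or postemergence at 1- to 4-leaf stage, using a non-phytotoxic solvent/surfactant formulation.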

[2] = tested on: barnyardgrass (Echinochloa crus-galli); test: Test B postemergence; settings: 13 to 15 days
Outline: as §1

[3] = tested on: blackgrass (Alopecurus myosuroides); test: Test B postemergence; settings: 13 to 15 days
Outline: as §1

corn (Zea mays) [4] = test: Test B postemergence; settings: 13 to 15 days
Outline: as §1

[5] = tested on: giant foxtail (Setaria faberii); test: Test B postemergence; settings: 13 to 15 days
Outline: as §1

[6] = tested on: morning glory (Ipomoea hederacea); test: Test B postemergence; settings: 13 to 15 days
Outline: as §1

[7] = tested on: pigweed (Amaranthus retroflexus); test: Test B postemergence; settings: 13 to 15 days
Outline: as §1

[8] = tested on: velvetleaf (Abutilon theophrasti); test: Test B postemergence; settings: 13 to 15 days
Outline: as §1

[9] = tested on: wheat (Triticum aestivum); test: Test B postemergence; settings: 13 to 15 days
Outline: as §1

[10] = tested on: Surinam grass (Brachiaria decumbens); test: Test B preemergence
Outline: as §1

[11] = tested on: barnyardgrass (Echinochloa crus-galli); test: Test B preemergence
Outline: as §1

[12] = tested on: cocklebur (Xanthium strumarium); test: Test B preemergence
Outline: as §1

corn (Zea mays) [13] = test: Test B preemergence
Outline: as §1

[14] = tested on: crabgrass (Digitaria sanguinalis); test: Test B preemergence
Outline: as §1

[15] = tested on: giant foxtail (Setaria faberii); test: Test B preemergence
Outline: as §1

[16] = tested on: lambsquarters (Chenopodium album); test: Test B preemergence
Outline: as §1

[17] = tested on: morning glory (Ipomoea hederacea); test: Test B preemergence
Outline: as §1

[18] = tested on: pigweed (Amaranthus retroflexus); test: Test B preemergence
Outline: as §1

rice (Oryza saliva) [19] = test: Test B preemergence
Outline: as §1

[20] = tested on: velvetleaf (Abutilon theophrasti); test: Test B preemergence
Outline: as §1

[21] = tested on: barnyardgrass (Echinochloa crus-galli); test: Test C flooded paddy test; settings: for Barnyardgrass plant response rating: Flooded Paddy, scale 0 to 100, 0 no effect, 100 complete control; for Plant response rating, Barnyardgrass: flooded paddy test, scale 0 to 100 (0 no effect, 100 complete control)
Outline: (§2)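 2-leaf-stage plants, flooded paddy; treated; greenhouse 12–14 days; compared with controls by eye; rated 0–100 (0 none, 100 complete control).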

[22] = tested on: duck salad (Heteranthera limosa); test: Test C flooded paddy test; settings: for Ducksalad plant response rating: Flooded Paddy, scale 0 to 100, 0 no effect, 100 complete control; for Plant response rating, Ducksalad: flooded paddy test, scale 0 to 100 (0 no effect, 100 complete control)
Outline: as §2

rice (Oryza saliva) [23] = test: Test C flooded paddy test; settings: for Rice plant response rating: Flooded Paddy, scale 0 to 100, 0 no effect, 100 complete control; for Plant response rating, Rice: flooded paddy test, scale 0 to 100 (0 no effect, 100 complete control)
Outline: as §2

[24] = tested on: smallflower flatsedge (Cyperus difformis); test: Test C flooded paddy test; settings: for Flatsedge plant response rating: Flooded Paddy, scale 0 to 100, 0 no effect, 100 complete control; for Plant response rating, Flatsedge: flooded paddy test, scale 0 to 100 (0 no effect, 100 complete control)
Outline: as §2

Nightshade = test: Test C preemergence; settings: Rate 500 g/ha, visual evaluation after 12 to 14 days
Sunflower = test: Test C preemergence; settings: Rate 250 g/ha, scale 0 to 100, 0 no effect, 100 complete control
[25] = Rate 125 g/ha, scale 0 (no effect) to 100 (complete control)
[26] = Rate 500 g/ha, scale 0 to 100, 0 is no effect, 100 is complete control
[27] = Preemergence, Rate 500 g/ha, scale 0 to 100, 0 no effect, 100 complete control
[28] = preemergence, Rate 125 g/ha, scale of 0 to 100 where 0 is no effect and 100 is complete control, 13 to 15 days

Cc1ccc(N2CCC(n3ccc(C(C)(C)C)n3)C2=O)cc1OC(F)F (stereo not shown) [Compound 79]
Plant response rating, Surinam grass [1, 25]: 0
Plant response rating, Surinam grass [1, 26]: 0
Plant response rating, Barnyardgrass [2, 25]: 0
Plant response rating, Barnyardgrass [2, 26]: 0
Plant response rating, Blackgrass [3, 25]: 0
Plant response rating, Blackgrass [3, 26]: 0
Plant response rating, Corn (corn (Zea mays) [4]; [25]): 0
Plant response rating, Corn (corn (Zea mays) [4]; [26]): 0
Plant response rating, Foxtail, Giant [5, 25]: 0
Plant response rating, Foxtail, Giant [5, 26]: 0
Plant response rating, Morningglory [6, 25]: 30
Plant response rating, Morningglory [6, 26]: 40
Plant response rating, Pigweed [7, 25]: 70
Plant response rating, Pigweed [7, 26]: 70
Plant response rating, Velvetleaf [8, 25]: 0
Plant response rating, Velvetleaf [8, 26]: 0
Plant response rating, Wheat [9, 25]: 0
Plant response rating, Wheat [9, 26]: 0
Plant response rating, Surinam grass [10, 27]: 90
Plant response rating, Surinam grass [10, 28]: 70
Plant response rating, Barnyardgrass [11, 27]: 100
Plant response rating, Barnyardgrass [11, 28]: 70
Plant response rating, Cocklebur [12, 27]: 0
Plant response rating, Cocklebur [12, 28]: 0
Plant response rating, Corn (corn (Zea mays) [13]; [27]): 0
Plant response rating, Corn (corn (Zea mays) [13]; [28]): 0
Plant response rating, Crabgrass [14, 27]: 100
Plant response rating, Crabgrass [14, 28]: 100
Plant response rating, Foxtail, Giant [15, 27]: 60
Plant response rating, Foxtail, Giant [15, 28]: 0
Plant response rating, Lambsquarters [16, 27]: 100
Plant response rating, Lambsquarters [16, 28]: 100
Plant response rating, Morningglory [17, 27]: 100
Plant response rating, Morningglory [17, 28]: 0
Plant response rating, Pigweed [18, 27]: 100
Plant response rating, Pigweed [18, 28]: 100
Plant response rating, Rice (rice (Oryza saliva) [19]; [27]): 90
Plant response rating, Rice (rice (Oryza saliva) [19]; [28]): 50
Plant response rating, Velvetleaf [20, 27]: 90
Plant response rating, Velvetleaf [20, 28]: 0
Barnyardgrass plant response rating ([21]; Rate 250 g/ha): 90
Barnyardgrass plant response rating ([21]; Rate 500 g/ha): 90
Plant response rating, Barnyardgrass ([21]; Rate 62 g/ha): 30
Plant response rating, Barnyardgrass ([21]; Rate 125 g/ha): 40
Ducksalad plant response rating ([22]; Rate 250 g/ha): 90
Ducksalad plant response rating ([22]; Rate 500 g/ha): 90
Plant response rating, Ducksalad ([22]; Rate 62 g/ha): 0
Plant response rating, Ducksalad ([22]; Rate 125 g/ha): 30
Rice plant response rating (rice (Oryza saliva) [23]; Rate 250 g/ha): 20
Rice plant response rating (rice (Oryza saliva) [23]; Rate 500 g/ha): 50
Plant response rating, Rice (rice (Oryza saliva) [23]; Rate 62 g/ha): 0
Plant response rating, Rice (rice (Oryza saliva) [23]; Rate 125 g/ha): 20
Flatsedge plant response rating ([24]; Rate 250 g/ha): 90
Flatsedge plant response rating ([24]; Rate 500 g/ha): 90
Plant response rating, Flatsedge ([24]; Rate 62 g/ha): 90
Plant response rating, Flatsedge ([24]; Rate 125 g/ha): 90
Plant response rating (0 to 100), Nightshade (Nightshade): 90
Plant response rating, Sunflower (Sunflower): 50

From US7138361B2, “Herbicidal heterocycles” (E. I. du Pont de Nemours and Company, priority 2000, dated 2006)
